Results from patent US9193729B2, “Inhibiting transient receptor potential ion channel TRPA1” (Cubist Pharmaceuticals, Inc., priority 2011, dated 2015).

Legend:
[1] = tested on: formalin-induced pain behavior; assay: Formalin-induced pain behavior in vivo rodent model; parameters: species or system rat; conditions: i.p. administration, in words
From the text: The data shown in Tables 3a, 3b, and 3c and FIG. 2 were obtained by administering a pharmaceutical composition comprising the compound of Formula (Ia) to rodents in the formalin-induced pain duration at various doses according to Example 5. Specifically, the data in Tables 3a, 3b, and 3c and FIG. 2 were obtained by intraperitoneal (i.p.) administration of compositions containing different concentrations of the compound of Formula (Ia), a comparator composition containing recited amounts of the comparator compound (e.g., 150 mg/kg of the comparator compound of Formula (II) in Table 3a) and a control composition containing the vehicle (e.g., without the compound of Formula (Ia) or a comparator compound).
The compound of Formula (Ia) and the comparator compounds of Formula (II) and Formula (III) were tested in the formalin-induced pain test reported by Dubuisson et al., Pain 1977 December; 4(2):161-74 (incorporated herein by reference in its entirety). Dubuisson et al. (1977) describe a method for assessing pain and analgesia in rats and cats. Briefly, dilute formalin (50 μL of 3% formalin) is injected into the plantar surface of the hind paw. […] The individual responsible for counting the pain behaviors in a particular study is blinded to the treatment groups.
Rats were treated with the HCl salt of Compound (Ia) at various doses (3, 10, 30, and 50 mg/kg, IP) or with the vehicle (IP).

[2] = tested on: serum biomarkers of hepatotoxicity; assay: Hepatotoxicity serum biomarker study in dogs, oral dose; type: in vivo, dog; conditions: for ALT level elevation: single PO dose of 50 mg/kg
Description: The compound of Formula (Ia) was orally dosed to […] at dose levels of 5, 15 or 50 mg/kg using 30% Sulfobutylether β-cyclodextrin as the vehicle for assessment of safety as measured via serum chemistry biomarkers of hepatotoxicity or bile duct injury FIG. 5A, showing measurements of alanine aminotranferease [ALT], aspartate aminotranferease [AST], alkaline phosphatase [ALP] and gamma-glutamyl transferase [GGT] in the dogs at each dose level (each bar represents a measurement from 1 dog in the study). […] For example, the ALT levels were elevated up to about 60-fold in male dogs and up to about 130-fold in female beagle dogs following a single PO dose of 50 mg/kg.

female rats = assay: 7-day i.p. repeat dose screening toxicity study; type: in vivo, rat; conditions: rats, 50 mg/kg/day i.p. for 7 consecutive days
Description: The compound of Formula (Ia) was evaluated in a 7-day repeat dose screening toxicity study in female rats. In order to maximize systemic exposure, rats were administered compound of Formula (Ia) i.p. at 50 mg/kg/day for 7 consecutive days, to obtain the results shown in FIG. 6. Clinical chemistry parameters were evaluated on Days 3 and 8. Histopathology was performed on select organs including the liver, kidney, spleen, and lung.

hTRPA1 = hTRPA1 (Homo sapiens, UniProt O75762); assay: Whole-cell patch clamp inhibition of hTRPA1; type: cell-based; conditions: same procedure as Example 3; species not given; read-out: IC50 in Patch Clamp Assay, TRPA1
Description: (§1) Data for TRPA1 inhibition and the selectivity of TRPA1 inhibition was obtained by this method for the compound of Formula (Ia) and included in Table 1 and Table 2. All currents were recorded in whole-cell configuration using EPC-9 and EPC-10 amplifiers and Patchmaster software (HEKA). […] The standard pipette solution consisted of 140 mM CsAsp, 10 mM EGTA, 10 mM HEPES, 2.27 mM MgCl2, 1.91 mM CaCl2, 4 mM MgATP, and 0.1-0.3 mM Na2GTP, with pH adjusted to 7.2 with CsOH. In addition, a solution containing 145 mM CsCl, 10 mM HEPES, 10 mM EGTA and 1 mM MgCl2 (pH 7.2 adjusted with CsOH) can be used. The standard bath solution contained 150 mM NaCl, 10 mM HEPES, 10 mM glucose, 4.5 mM KCl, 1 mM EGTA, 3 mM MgCl2, with pH adjusted to 7.4 with NaOH. In some instances, 2 mM CaCl2 was added in place of EGTA and the concentration of MgCl2 was reduced to 1 mM.
(§2) Data were collected either by continuous recordings at −60 mV or by applying voltage ramps from a holding potential of 0 mV every 4 s. […] Inward and outward currents were analyzed from the ramps at −80 and 80 mV, respectively. […]
(§3) Solutions were switched using a gravity-fed continuous focal perfusion system. […] Temperatures were confirmed using a thermistor (Warner Instruments, TA-29), with temperatures at the recorded cell estimated to be within +/−2° C. of those reported. […]

hTRPV3 = biological target: T1, hTRPV3 (Homo sapiens, UniProt Q8NET8); assay: Patch clamp selectivity, hTRPV3; type: cell-based; conditions: same procedure as Example 3; species not given; read-out: IC50 in Patch Clamp Assay, TrpV3
T1 sequence (Q8NET8 1-790): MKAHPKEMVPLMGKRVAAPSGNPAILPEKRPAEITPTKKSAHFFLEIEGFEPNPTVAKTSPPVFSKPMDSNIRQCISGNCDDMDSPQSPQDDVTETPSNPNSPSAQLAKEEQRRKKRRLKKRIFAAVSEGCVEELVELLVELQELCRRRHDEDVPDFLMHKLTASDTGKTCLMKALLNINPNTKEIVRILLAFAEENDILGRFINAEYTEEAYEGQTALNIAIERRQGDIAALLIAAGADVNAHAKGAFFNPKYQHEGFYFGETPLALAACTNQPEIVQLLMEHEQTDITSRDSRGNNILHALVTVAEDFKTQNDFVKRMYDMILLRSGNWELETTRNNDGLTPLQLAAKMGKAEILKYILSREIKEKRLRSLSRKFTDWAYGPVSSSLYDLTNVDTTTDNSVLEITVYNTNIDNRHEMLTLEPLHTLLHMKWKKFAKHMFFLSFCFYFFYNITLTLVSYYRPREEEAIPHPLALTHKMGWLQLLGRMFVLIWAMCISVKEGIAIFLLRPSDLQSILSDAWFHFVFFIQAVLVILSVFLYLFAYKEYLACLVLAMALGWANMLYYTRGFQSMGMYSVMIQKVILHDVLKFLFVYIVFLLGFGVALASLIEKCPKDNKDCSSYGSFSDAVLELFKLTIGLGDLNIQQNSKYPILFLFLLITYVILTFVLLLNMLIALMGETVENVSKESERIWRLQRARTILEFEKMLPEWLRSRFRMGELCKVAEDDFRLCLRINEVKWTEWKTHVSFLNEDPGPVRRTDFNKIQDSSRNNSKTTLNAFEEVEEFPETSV
Description: as §1, §2, §3

hERG = hERG (Homo sapiens, UniProt Q12809); assay: Patch clamp selectivity, hERG; type: cell-based; conditions: same procedure as Example 3
Description: as §1, §2, §3

hNav1.2 = hNav1.2 (Homo sapiens, UniProt Q99250); assay: Patch clamp selectivity, hNav1.2; type: cell-based; conditions: same procedure as Example 3; species not given; read-out: IC50 in Patch Clamp Assay, NaV1.2
Description: as §1, §2, §3

Sequence of hNav1.2 (Q99250 whole entry): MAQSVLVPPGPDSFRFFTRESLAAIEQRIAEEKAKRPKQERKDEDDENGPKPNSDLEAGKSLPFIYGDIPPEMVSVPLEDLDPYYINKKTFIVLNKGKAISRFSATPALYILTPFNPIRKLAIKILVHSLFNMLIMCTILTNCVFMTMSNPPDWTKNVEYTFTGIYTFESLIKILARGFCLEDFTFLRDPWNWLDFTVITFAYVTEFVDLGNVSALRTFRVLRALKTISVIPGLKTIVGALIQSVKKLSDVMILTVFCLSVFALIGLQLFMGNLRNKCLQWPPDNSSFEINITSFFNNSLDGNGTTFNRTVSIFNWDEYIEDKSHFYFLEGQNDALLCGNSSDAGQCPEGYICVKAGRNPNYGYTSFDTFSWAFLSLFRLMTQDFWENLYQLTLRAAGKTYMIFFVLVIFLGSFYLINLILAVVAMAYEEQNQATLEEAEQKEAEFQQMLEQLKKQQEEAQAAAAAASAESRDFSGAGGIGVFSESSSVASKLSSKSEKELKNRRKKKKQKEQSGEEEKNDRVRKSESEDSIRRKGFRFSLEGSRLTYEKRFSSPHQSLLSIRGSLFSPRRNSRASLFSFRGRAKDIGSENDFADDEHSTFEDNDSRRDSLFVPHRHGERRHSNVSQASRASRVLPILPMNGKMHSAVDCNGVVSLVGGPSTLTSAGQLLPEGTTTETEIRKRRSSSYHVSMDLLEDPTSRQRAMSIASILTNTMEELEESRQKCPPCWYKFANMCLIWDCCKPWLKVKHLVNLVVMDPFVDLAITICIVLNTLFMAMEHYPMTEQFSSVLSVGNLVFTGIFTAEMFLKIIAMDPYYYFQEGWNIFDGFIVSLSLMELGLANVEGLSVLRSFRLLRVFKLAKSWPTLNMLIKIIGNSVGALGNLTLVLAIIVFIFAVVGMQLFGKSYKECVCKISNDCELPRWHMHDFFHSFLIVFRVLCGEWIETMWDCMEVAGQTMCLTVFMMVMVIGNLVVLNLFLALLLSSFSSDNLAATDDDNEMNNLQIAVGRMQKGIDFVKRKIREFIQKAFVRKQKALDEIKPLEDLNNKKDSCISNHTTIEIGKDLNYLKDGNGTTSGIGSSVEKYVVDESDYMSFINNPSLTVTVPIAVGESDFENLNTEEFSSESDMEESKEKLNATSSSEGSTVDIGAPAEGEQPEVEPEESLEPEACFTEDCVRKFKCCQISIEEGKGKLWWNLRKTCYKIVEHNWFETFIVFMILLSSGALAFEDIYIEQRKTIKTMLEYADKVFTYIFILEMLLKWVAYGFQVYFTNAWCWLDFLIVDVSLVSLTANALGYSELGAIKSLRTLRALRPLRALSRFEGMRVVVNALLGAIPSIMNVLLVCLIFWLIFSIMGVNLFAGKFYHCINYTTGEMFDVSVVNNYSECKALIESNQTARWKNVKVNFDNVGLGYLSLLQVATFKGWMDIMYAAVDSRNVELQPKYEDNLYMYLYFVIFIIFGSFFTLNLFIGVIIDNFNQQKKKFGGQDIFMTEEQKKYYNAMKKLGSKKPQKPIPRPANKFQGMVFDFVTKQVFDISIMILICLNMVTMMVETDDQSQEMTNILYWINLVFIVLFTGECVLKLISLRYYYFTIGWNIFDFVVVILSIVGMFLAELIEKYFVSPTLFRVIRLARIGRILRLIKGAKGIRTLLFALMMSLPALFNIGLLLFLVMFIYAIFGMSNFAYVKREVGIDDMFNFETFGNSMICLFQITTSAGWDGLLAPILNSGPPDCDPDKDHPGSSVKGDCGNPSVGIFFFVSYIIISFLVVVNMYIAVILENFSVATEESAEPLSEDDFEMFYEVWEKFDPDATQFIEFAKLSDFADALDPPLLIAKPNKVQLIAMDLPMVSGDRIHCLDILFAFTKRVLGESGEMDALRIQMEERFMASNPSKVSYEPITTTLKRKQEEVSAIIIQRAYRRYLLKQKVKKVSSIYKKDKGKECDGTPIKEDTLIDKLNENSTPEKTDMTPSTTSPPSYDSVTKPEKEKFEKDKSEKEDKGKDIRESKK
Sequence of hERG (Q12809 whole entry): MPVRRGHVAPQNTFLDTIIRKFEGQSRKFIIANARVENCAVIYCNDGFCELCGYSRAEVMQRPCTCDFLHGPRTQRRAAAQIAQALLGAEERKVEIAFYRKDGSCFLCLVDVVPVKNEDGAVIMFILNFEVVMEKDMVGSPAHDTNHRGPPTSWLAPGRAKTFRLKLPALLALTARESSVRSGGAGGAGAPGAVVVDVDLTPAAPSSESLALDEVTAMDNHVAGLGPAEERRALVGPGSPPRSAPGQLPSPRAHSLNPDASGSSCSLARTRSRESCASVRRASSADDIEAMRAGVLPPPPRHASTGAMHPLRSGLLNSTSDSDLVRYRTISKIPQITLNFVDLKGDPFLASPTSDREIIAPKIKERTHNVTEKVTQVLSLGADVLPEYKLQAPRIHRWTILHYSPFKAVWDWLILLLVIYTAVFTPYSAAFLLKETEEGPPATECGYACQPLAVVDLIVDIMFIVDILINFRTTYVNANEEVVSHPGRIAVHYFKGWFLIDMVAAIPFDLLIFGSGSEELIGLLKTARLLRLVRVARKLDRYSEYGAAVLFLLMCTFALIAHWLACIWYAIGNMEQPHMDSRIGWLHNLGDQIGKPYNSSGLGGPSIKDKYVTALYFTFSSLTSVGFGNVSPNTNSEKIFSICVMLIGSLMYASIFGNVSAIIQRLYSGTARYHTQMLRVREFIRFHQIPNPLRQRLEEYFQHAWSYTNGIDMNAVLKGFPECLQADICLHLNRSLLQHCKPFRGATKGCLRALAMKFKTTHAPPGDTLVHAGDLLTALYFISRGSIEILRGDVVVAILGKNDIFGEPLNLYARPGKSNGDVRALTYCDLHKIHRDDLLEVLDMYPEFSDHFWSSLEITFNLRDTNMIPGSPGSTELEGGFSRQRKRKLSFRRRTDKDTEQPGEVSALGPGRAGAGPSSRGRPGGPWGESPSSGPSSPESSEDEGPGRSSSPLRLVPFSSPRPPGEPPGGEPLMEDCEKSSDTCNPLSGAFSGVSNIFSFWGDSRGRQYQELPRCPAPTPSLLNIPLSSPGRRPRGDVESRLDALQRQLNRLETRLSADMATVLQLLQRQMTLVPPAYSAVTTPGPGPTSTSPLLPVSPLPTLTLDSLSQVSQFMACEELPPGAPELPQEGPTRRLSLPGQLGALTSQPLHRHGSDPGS
Sequence of hTRPA1 (O75762 whole entry): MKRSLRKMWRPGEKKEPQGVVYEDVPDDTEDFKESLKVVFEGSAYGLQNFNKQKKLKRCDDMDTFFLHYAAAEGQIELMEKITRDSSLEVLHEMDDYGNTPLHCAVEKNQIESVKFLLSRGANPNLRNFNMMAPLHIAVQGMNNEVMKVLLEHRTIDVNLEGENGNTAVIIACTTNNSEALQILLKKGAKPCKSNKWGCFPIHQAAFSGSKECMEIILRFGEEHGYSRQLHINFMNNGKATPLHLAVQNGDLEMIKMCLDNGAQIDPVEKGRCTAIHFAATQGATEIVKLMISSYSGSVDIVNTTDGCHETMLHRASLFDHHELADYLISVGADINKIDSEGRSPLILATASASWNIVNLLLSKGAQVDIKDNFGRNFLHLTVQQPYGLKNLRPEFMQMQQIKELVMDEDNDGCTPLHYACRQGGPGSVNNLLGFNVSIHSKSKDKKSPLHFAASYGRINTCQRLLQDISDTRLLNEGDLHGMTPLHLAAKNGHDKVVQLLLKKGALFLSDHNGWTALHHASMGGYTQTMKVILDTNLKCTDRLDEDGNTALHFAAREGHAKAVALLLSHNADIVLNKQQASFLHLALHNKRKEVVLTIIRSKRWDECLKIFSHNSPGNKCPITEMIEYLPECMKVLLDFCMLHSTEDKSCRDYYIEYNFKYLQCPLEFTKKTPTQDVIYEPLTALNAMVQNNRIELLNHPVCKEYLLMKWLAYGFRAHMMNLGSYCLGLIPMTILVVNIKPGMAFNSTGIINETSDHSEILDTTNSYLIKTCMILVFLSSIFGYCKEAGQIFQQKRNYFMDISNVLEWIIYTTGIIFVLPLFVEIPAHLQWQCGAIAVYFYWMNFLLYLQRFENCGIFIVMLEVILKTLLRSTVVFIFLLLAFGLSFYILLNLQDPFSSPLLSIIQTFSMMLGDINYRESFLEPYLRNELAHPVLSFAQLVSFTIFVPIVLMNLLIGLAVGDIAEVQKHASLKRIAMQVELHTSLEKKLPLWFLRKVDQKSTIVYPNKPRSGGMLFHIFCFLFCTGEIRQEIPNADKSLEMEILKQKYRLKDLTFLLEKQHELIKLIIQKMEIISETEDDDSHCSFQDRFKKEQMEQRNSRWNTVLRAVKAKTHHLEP

IC50 (hTRPA1) [µM]	IC50 (hTRPV3) [µM]	IC50 (hNav1.2) [µM]	SMILES	duration of pain behavior compared with vehicle [1]	serum biomarkers of hepatotoxicity (ALT, AST, ALP, GGT) ([2]; dogs, 50 mg/kg PO)	ALT level elevation ([2]; female beagle dogs)	ALT level elevation ([2]; male dogs)	serum biomarkers of hepatotoxicity (female rats)	IC50 (hERG) [µM]
			CC(C)c1ccc(NC(=O)Cn2cnc3c2c(=O)n(C)c(=O)n3C)cc1 [Formula (II)]	shorter durations of pain behavior than those treated with the vehicle					
			C[C@H]1CCCN1c1ccc(-c2csc(NC(=O)Cn3cnc4c3c(=O)n(C)c(=O)n4C)n2)cc1F [Formula (III)]	shorter durations of pain behavior than those treated with the vehicle	did elevate serum biomarkers of hepatotoxicity	up to 130 fold	up to 60 fold	did elevate serum biomarkers of hepatotoxicity	
9.8	> 10	> 20	C[C@H]1CCCN1c1ncc(-c2cccc(NC(=O)Cn3cnc4[nH]c(=O)n(C)c(=O)c43)n2)cn1 [Formula (IV), reference compound]						> 20
